Experimental data from PMC4466645 (Oncotarget, 2015).

Legend:
Kasumi-1 = assay: Soft agar colony formation assay, Kasumi-1; assay type: cell-based; details: Kasumi-1, 100 nM, 21 days, normalized to vehicle
Method: (§1) Cell lines were plated at a density of 1000 cells/ml in 0.35% agar over 0.5% agar base layer. […] Colonies were grown for 14 (NOMO-1, MV4;11, MOLM-13) or 21 days (Kasumi-1) prior to staining with 1 mg/ml nitrotetrazolium blue (Sigma-Aldrich). Treatment-containing medium was renewed twice weekly. […] Human mononuclear cells were isolated from umbilical cord blood samples using Ficoll-Paque PLUS (GE Healthcare Life Sciences). […] Cell line and patient sample colonies were counted using a GelCount colony counter (Oxford Optronix) and cord blood colonies were manually counted in a blinded, non-biased manner.

NOMO-1 = assay: Soft agar colony formation assay, NOMO-1; assay type: cell-based; details: NOMO-1, 100 nM, 14 days, normalized to vehicle
Method: as §1

MOLM-13 = assay: Soft agar colony formation assay, MOLM-13; assay type: cell-based; details: MOLM-13, 50 nM, 14 days, normalized to vehicle
Method: as §1

[1] = tested on: primary AML patient samples; assay: Apoptosis by flow cytometry in primary AML patient samples co-cultured with HS27 stromal cells; assay type: cell-based, human
Source text: Cell lines MV4;11, NOMO-1, KG-1a, NB-4, and HEL were obtained from the German Collection of Microorganisms and Cell Culture (DSMZ); Kasumi-1 and U937 were obtained from the American Type Culture Collection (ATCC); MOLM-13 was a gift from Robert Arceci (Johns Hopkins); HS-27 was a gift from Kathrin Bernt (University of Colorado). AML cell lines were maintained in RPMI medium (HyClone) supplemented with 10% FBS and penicillin/streptomycin (cRPMI). Cell line identities were confirmed using short tandem repeat microsatellite loci analysis. HS-27 stromal cells were maintained in DMEM with 10% FBS and penicillin/streptomycin prior to co-culture. De-identified cord blood samples and primary patient myeloblasts apheresed from peripheral blood were obtained from the University of Colorado after written informed consent in accordance with the Declaration of Helsinki. Experiments conformed to regulatory standards as approved by the Colorado Multiple Institutional Review Board. AML patient samples were maintained as previously described, with HS-27 stromal co-culture for apoptosis and cell cycle experiments.
To assess apoptosis, AML cell lines were cultured at 3 × 10^5 cells, and 1 × 10^6 AML patient blasts were co-cultured with 3.5 × 10^5 HS27 cells per condition in 24 well plates, and treated for 72 hours. Harvested cells were washed, resuspended in PBS containing 1 μM YO-PRO®-1 iodide (Invitrogen) and 1.5 μM propidium iodide (PI) (Invitrogen), and incubated on ice for 15–20 minutes. […] Flow cytometry data were analyzed using Modfit Cell Cycle Analysis software (Verity Software House). In replating assays, cells were similarly plated and treated, then harvested cells were washed twice, and 1.5 × 10^4 viable cells/ml were cultured in cRPMI for six days. Six days after replating, viable myeloblast count was determined by trypan blue exclusion using a Cedex XS Analyzer (Roche).

[2] = tested on: primary AML patient samples; assay: Colony formation in methylcellulose, primary AML patient samples; assay type: cell-based, human
Method: as §1

[3] = tested on: normal umbilical cord blood; assay: Colony formation in methylcellulose, normal umbilical cord blood hematopoietic precursors; assay type: cell-based, human
Method: as §1

[4] = tested on: AML cell lines expressing Mer or Flt3 internal tandem duplication (ITD); assay: Colony formation, AML cell lines expressing Mer or Flt3-ITD (all lines together); assay type: cell-based; details: compared to treatment with vehicle
Method: Cell lines were plated at a density of 1000 cells/ml in 0.35% agar over 0.5% agar base layer. […] Colonies were grown for 14 (NOMO-1, MV4;11, MOLM-13) or 21 days (Kasumi-1) prior to staining with 1 mg/ml nitrotetrazolium blue (Sigma-Aldrich). Treatment-containing medium was renewed twice weekly. […]. Human mononuclear cells were isolated from umbilical cord blood samples using Ficoll-Paque PLUS (GE Healthcare Life Sciences). […]. Cell line and patient sample colonies were counted using a GelCount colony counter (Oxford Optronix) and cord blood colonies were manually counted in a blinded, non-biased manner.

[5] = Pharmacokinetics in a murine model; details: mouse, in vivo, po
MV4;11 cell line [6] = assay: Replating (rebound growth) assay, MV4;11; details: MV4;11, 50 nM for 72 hours then washed, replated at 1.5 × 10^4 viable cells/ml
Method: (§2) To assess apoptosis, AML cell lines were cultured at 3 × 10^5 cells, and 1 × 10^6 AML patient blasts were co-cultured with 3.5 × 10^5 HS27 cells per condition in 24 well plates, and treated for 72 hours. […] Flow cytometry data were analyzed using Modfit Cell Cycle Analysis software (Verity Software House). In replating assays, cells were similarly plated and treated, then harvested cells were washed twice, and 1.5 × 10^4 viable cells/ml were cultured in cRPMI for six days. Six days after replating, viable myeloblast count was determined by trypan blue exclusion using a Cedex XS Analyzer (Roche).

Kasumi-1 cell line = assay: Replating (rebound growth) assay, Kasumi-1; details: Kasumi-1, 100 nM for 72 hours then washed, replated at 1.5 × 10^4 viable cells/ml; vehicle 2.0 × 10^5
Method: as §2

MV4;11 cell line [7] = assay: Apoptosis by flow cytometry (YO-PRO-1 iodide / propidium iodide), MV4;11; details: MV4;11, 300 nM, 72 hours; vehicle 13 ± 3%
Method: as §2

CCCCNc1ncc2c(-c3ccc(S(=O)(=O)N4CCOCC4)cc3)cn([C@H]3CC[C@H](O)CC3)c2n1 [UNC1666]
Reduction in colony formation (Kasumi-1): 90 ± 6% | Reduction in colony formation (NOMO-1): 71 ± 4% | Reduction in colonies (MOLM-13): 93 ± 6% | Anti-proliferative effects in patient samples (in words) ([1]; 50 nM, co-culture with stromal cells): near complete induction of apoptosis and growth inhibition | Induction of apoptosis (in words) ([1]; 72 hours, HS27 stromal co-culture): induce apoptosis in all patient samples | Concentrations at which functional effects (decreased ability to evade apoptosis, decreased colony formation) occurred ([1]; AML patient samples that co-expressed Mer and Flt3): 5 to 100 nM | Concentrations at which patient-derived myeloblasts are sensitive in methylcellulose cultures ([2]; as low as): 5 to 50 nM | Colony formation (in words) ([2]; concentrations as low as 50 nM, in all but one sample, 10 days, methylcellulose): near complete abrogation of colony formation | Colony formation of normal cord blood hematopoietic precursors (in words) ([3]; 1 μM, methylcellulose, 14 days): trend towards decreased colony formation | Decrease in colony formation of normal cord blood hematopoietic precursors (in words) ([3]; 10 μM, methylcellulose, 14 days): statistically significant | Colony forming potential of hematopoietic progenitors in normal cord blood cultures (in words) ([3]; doses as high as 1 μM): did not affect the colony forming potential | Colony number of normal cord blood hematopoietic precursors (in words) ([3]; doses up to 500 nM, n = 3, methylcellulose, 14 days): no significant reduction in colony number | Reduction of colony formation [4]: greater than 90% | bioavailability [5]: 8% | Viable cell number at Day 6 after replating (MV4;11 cell line [6]; vehicle 10 × 10^5): 2.0 × 10^5 viable cells/ml | Increase in viable cell number over six days after replating (MV4;11 cell line [6]; vehicle 67-fold): 13 fold | Viable cell number at Day 6 after replating (Kasumi-1 cell line): 0.3 × 10^5 cells/ml | Apoptosis (cells apoptotic or dead) (MV4;11 cell line [7]): 90 ± 1%
